Read-outs that look alike come from different tables or passages of the source.
Key:
[1] = biological target: T1, wild-type hNudt16 (Homo sapiens, UniProt Q96DE0); test: Thermal stability of wild-type hNudt16 with ligands, nanoDSF; type: binding; details: 20 mM MgCl2, same conditions as E76Q
T1 construct: 4xHis (four added histidines); made in house
Protocol: This allow us to conclude that there is no negative effect of the mutation on protein stabilization by studied compounds.
Protein thermal stability in the presence of various ligands was measured using two DSF methods: assays with SYPRO orange dye and dye-free assays. DSF assays with SYPRO orange dye were performed at specific ligand concentrations for each protein–ligand pair. This measurement was performed as described in Section 4.6.1, with a constant MgCl2 concentration of 20 mM and a concentration of the tested ligand maintained at 0.5 mM. DSF dye-free measurements were performed using a Prometheus NT.48 nanoDSF device (NanoTemper Technologies, München, Germany). The composition of the samples was identical to that in the DSF with SYPRO orange dye measurements, without the addition of any dye. The conditions during measurements were as follows: 5 µM protein, 20 mM MgCl2, 10 mM HEPES pH 7.9, 150 mM NaCl, 5% glycerol, 1 mM TCEP, and 0.5 mM ligand. The measurements were performed at a single ligand concentration for all ligands. After 10 min of pre-incubation, the samples were loaded into standard capillaries (NanoTemper Technologies, München, Germany). During the measurement, the samples were heated in a temperature range of 20–95 °C at a rate of 1 °C/min, and the measurements were performed with an excitation power of 30%. All of the collected data measured with using the above two DSF methods were analyzed according to the two-state transition numerical model described previously, using the Marquardt algorithm implemented in the Origin 2019 package (OriginLab, Northampton, MA, USA). We fitted the melting temperatures (Tm) globally for at least three independent experiments (but separately for different DSF methods).

[2] = biological target: T2, hNudt16E76Q (Homo sapiens, UniProt Q96DE0, E76Q); test: Thermal stability of hNudt16E76Q with ligands, DSF with SYPRO Orange; type: binding; details: 5 µM hNudt16E76Q, 20 mM MgCl2, 0.5 mM ligand, 4× SYPRO Orange; for ∆Tm, DSF (with SYPRO Orange): relative to apo
T2 construct: 4xHis (four added histidines); made in house; host or cells: E. coli Rosetta 2 (DE3), pET16b
T2 sequence (Q96DE0 whole entry E76Q): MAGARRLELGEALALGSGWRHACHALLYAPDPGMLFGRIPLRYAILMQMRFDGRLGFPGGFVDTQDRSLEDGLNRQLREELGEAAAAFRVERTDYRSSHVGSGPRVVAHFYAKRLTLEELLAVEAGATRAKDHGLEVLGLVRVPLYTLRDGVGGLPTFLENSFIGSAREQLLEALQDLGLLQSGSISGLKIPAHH
Protocol: The protein thermal stability of wild-type hNudt16 and all tested mutants in the presence of increasing Mg^2+ ion concentration was measured using DSF with SYPRO orange dye on CFX RT-PCR (Bio-Rad, Hercules, CA, USA). This method is based on the change in fluorescence of the SYPRO orange dye in an aqueous buffer, which is strongly quenched, while its binding to the exposed hydrophobic regions of thermally unfolded protein results in an increased fluorescence. The optimal concentrations of protein, SYPRO orange dye, and buffer composition, in particular ion content, were determined. The samples were prepared and measured in clear 96-well multiplate PCR plates for RT-PCR (Bio-Rad, Hercules, CA, USA). […] The individual components of the solution were added in equal volumes to each well, with a final sample volume of 25 μL/well. The samples were gently mixed, and the 96-well plate was covered with optically clear PCR sealing tape (Bio-Rad, Hercules, CA, USA) to prevent evaporation. […] The data processing procedure was performed using Bio-Rad CFX Manager (version 1.6.541.1028), and melting point temperatures were calculated as the minimum of the first derivative plot.
(§1) Protein thermal stability in the presence of various ligands was measured using two DSF methods: assays with SYPRO orange dye and dye-free assays. DSF assays with SYPRO orange dye were performed at specific ligand concentrations for each protein–ligand pair. This measurement was performed as described in Section 4.6.1, with a constant MgCl2 concentration of 20 mM and a concentration of the tested ligand maintained at 0.5 mM. DSF dye-free measurements were performed using a Prometheus NT.48 nanoDSF device (NanoTemper Technologies, München, Germany). The composition of the samples was identical to that in the DSF with SYPRO orange dye measurements, without the addition of any dye. […] The measurements were performed at a single ligand concentration for all ligands. After 10 min of pre-incubation, the samples were loaded into standard capillaries (NanoTemper Technologies, München, Germany). […] We fitted the melting temperatures (Tm) globally for at least three independent experiments (but separately for different DSF methods).

[3] = biological target: T2, hNudt16E76Q; test: Thermal stability of hNudt16E76Q with ligands, dye-free nanoDSF; type: binding; details: for Tm, nanoDSF (Dye-Free) / ∆Tm, nanoDSF (Dye-Free): 5 µM hNudt16E76Q, 20 mM MgCl2, 0.5 mM ligand; for ∆Tm, nanoDSF (Dye-Free): relative to apo; for ΔTm relative to the apo form, both DSF and nanoDSF: 0.5 mM ligand, stated for both types of measurements
Protocol: as §1

[4] = biological target: T3, hNudt16 EE-QQ (Homo sapiens, UniProt Q96DE0, E79Q/E80Q); test: Hydrolytic properties of EE-QQ mutant tested by HPLC; type: biochemical
T3 construct: 4xHis (four added histidines); made in house; host or cells: E. coli Rosetta 2 (DE3), pET16b
T3 sequence (Q96DE0 whole entry E79Q/E80Q): as the sequence (Q96DE0 whole entry E76Q) above, with Q76E, E79Q, E80Q counted along it
Protocol: (§2) The hydrolytic susceptibility of the compounds was studied using HPLC. Before each experiment, 1 mL of buffer solution containing the analyte was incubated at 37 °C for 10 min. The hydrolysis process was initiated by the addition of hNudt16. To analyze the reaction progress, 200-µL aliquots of the reaction mixture were withdrawn and incubated at 96 °C for 5 min to stop the reaction through heat inactivation of the enzyme. The samples were then subjected to an HPLC system (Agilent 1200 series, Agilent Technologies, California, USA) with a reverse-phase Supelcosil LC-18-T column and UV/VIS detector. The substrates and hydrolysis products were eluted at 20 °C with a linear gradient of methanol in 0.1 M KH2PO4 (from 0% to 40%) over 15 min at a flow rate of 1.0 mL/min. Changes in the absorbance at 260 nm were continuously monitored during the analysis. Hydrolysis products were identified by comparing their retention times with those of the reference samples. The extent of decapping, determined as the percentage of the hydrolyzed substrate, was calculated using the area under the chromatographic peak of the respective compounds.

[5] = biological target: T2, hNudt16E76Q; test: Hydrolytic properties of E76Q mutant tested by HPLC; type: biochemical
Protocol: as §2

[6] = biological target: T2, hNudt16E76Q; test: Microscale thermophoresis (MST) binding, two independent binding sites model; details: for ΔGdiss1 (for Kd1): calculated as −RTlnKd from MST Kd1; for ΔGdiss2 (for Kd2): calculated as −RTlnKd from MST Kd2
Protocol: Binding constants for protein–ligand pairs were established using the MST method. The hNudt16 E76Q was labeled with RED-tris-NTA 2nd Generation dye (Monolith HIS-tag labeling Kit, NanoTemper Technologies, München, Germany) according to the manufacturer’s instructions. Measurements were carried out in a wide range of ligand concentrations, selected after preliminary tests for each of the ligands. The results obtained were used to determine of binding parameters for a given ligand. Each MST measurement consisted of a series of 16 serial 1:2 dilutions of the ligand, and was performed at a constant dye-labeled protein concentration of 50 nM. After 10 min of pre-incubation, dye-labeled protein–ligand samples were manually loaded into Monolith™ NT.115 Premium Capillaries (NanoTemper Technologies, München, Germany) and analyzed using the Monolith NT.115 (NanoTemper Technologies). […] Analysis was performed using Origin package (OriginLab, Northampton, MA, USA) and dissociation constants were fitted globally for a series of at least six MST pseudo-titration experiments for each ligand. Up to 10 replicates were performed for some ligands.
For the dissociation constants obtained, we also calculated the free energy associated with the dissociation of the complex ΔGdiss according to the equation: ΔGdiss=−RTlnKd.

[7] = biological target: T4, hNudt16 EE-KK (Homo sapiens, UniProt Q96DE0, E79K/E80K); test: Hydrolytic properties of EE-KK mutant tested by HPLC; type: biochemical
T4 construct: 4xHis (four added histidines); made in house; host or cells: E. coli Rosetta 2 (DE3), pET16b
T4 sequence (Q96DE0 whole entry E79K/E80K): as the sequence (Q96DE0 whole entry E76Q) above, with Q76E, E79K, E80K counted along it
Protocol: as §2

[8] = biological target: T5, hNudt16 (Homo sapiens, UniProt Q96DE0); test: Enzymatic hydrolysis catalyzed by hNudt16, products quantified by HPLC; type: biochemical; set-up: 4xHis (four added histidines); made in house; details: 20 µM substrate, 37 °C; for Hydrolysis Products / Hydrolysis Rate, v/[E]0 (hydrolyzed substrate per minute per [enzyme] µM) / Hydrolysis Rate, v/µg (hydrolyzed substrate per minute per enzyme µg): pH 7.9, 6 mM MgCl2, nd = hydrolysis products not detected; for Susceptibility to hydrolysis by hNudt16 (in words): HPLC
T5 sequence (Q96DE0 whole entry): as the sequence (Q96DE0 whole entry E76Q) above, with Q76E counted along it
Protocol: Enzymatic hydrolysis catalyzed by hNudt16 was performed at 37 °C in 40 mM Tris buffer (pH 7.9) containing 100 mM NaCl, 6 mM MgCl2, and 2 mM DTT. The concentration of the investigated dinucleotides and mononucleotides was 20 µM in the reaction mixture.
as §2

[9] = biological target: T5, hNudt16; details: cited from earlier work
[10] = second, weaker binding site, read-out: Kd2
[11] = stronger binding site, 50 nM dye-labeled protein, read-out: Kd1

T1 sequence (Q96DE0 whole entry): as the sequence (Q96DE0 whole entry E76Q) above, with Q76E counted along it

Row | Tm, DSF (with SYPRO Orange) [2] [°C] | ∆Tm, DSF (with SYPRO Orange) [2] [°C] | Tm, nanoDSF (Dye-Free) [3] [°C] | ∆Tm, nanoDSF (Dye-Free) [3] [°C] | ΔGdiss1 (for Kd1) [6] [kcal/mol] | ΔGdiss2 (for Kd2) [6] [kcal/mol] | Kd [6, 10] [µM] | Kd [6, 11] [µM] | Hydrolysis Products [8] | Hydrolysis Rate, v/[E]0 (hydrolyzed substrate per minute per [enzyme] µM) [8] | Hydrolysis Rate, v/µg (hydrolyzed substrate per minute per enzyme µg) [8] [µM/min/µg] | ΔTm relative to the apo form, both DSF and nanoDSF [3] | Compound | Tm, wild-type hNudt16, nanoDSF [1] [°C] | ΔTm, wild-type hNudt16, nanoDSF [1] [°C] | Hydrolytic activity of EE-QQ mutant [4] | Hydrolytic activity of E76Q mutant [5] | Hydrolytic activity of EE-KK mutant [7] | Susceptibility to hydrolysis by hNudt16 (in words) [8] | Km [9] [µM]
1 | 68.0 ± 0.1 | 4.3 ± 0.1 | 69.1 ± 0.1 | 4.0 ± 0.1 |  |  |  |  |  |  |  |  | Nc1nc2c(ncn2[C@@H]2O[C@H](COP(=O)(O)O)[C@@H](O)[C@H]2O)c(=O)[nH]1 [GMP, Guanosine monophosphate] | 70.8 ± 0.1 | 3.5 ± 0.1 |  |  |  |  | 
2 | 81.2 ± 0.1 | 17.5 ± 0.1 | 83.1 ± 0.1 | 18.0 ± 0.1 | 9.708 | 7.89 | 1.6 ± 0.4 | 0.073 ± 0.023 | GMP | 5454.5 ± 436.3 µM/min/[E]0 | 227.27 ± 18.25 | 17.5–18.0 °C | Nc1nc2c(ncn2[C@@H]2O[C@H](COP(=O)(O)OP(=O)(O)OC[C@H]3O[C@@H](n4cnc5c(=O)[nH]c(N)nc54)[C@H](O)[C@@H]3O)[C@@H](O)[C@H]2O)c(=O)[nH]1 [GppG] |  |  | none of the mutants exhibited hydrolytic activity | none of the mutants exhibited hydrolytic activity | none of the mutants exhibited hydrolytic activity |  | 
3 | 81.5 ± 0.1 | 17.8 ± 0.1 | 82.9 ± 0.1 | 17.8 ± 0.1 | 10.04 | 8.078 | 1.2 ± 0.2 |  |  |  |  | 17.5–18.0 °C | O=c1[nH]cnc2c1ncn2[C@@H]1O[C@H](COP(=O)(O)OP(=O)(O)O)[C@@H](O)[C@H]1O [IDP, Inosine diphosphate] |  |  |  |  |  | very rapid hydrolysis reaction | 

Second part, the compound before the results:

Row | Compound | Tm, DSF (with SYPRO Orange) [2] [°C] | ∆Tm, DSF (with SYPRO Orange) [2] [°C] | Tm, nanoDSF (Dye-Free) [3] [°C] | ∆Tm, nanoDSF (Dye-Free) [3] [°C] | ΔGdiss1 (for Kd1) [6] [kcal/mol] | ΔGdiss2 (for Kd2) [6] [kcal/mol] | Kd [6, 10] [µM] | Kd [6, 11] [µM] | Hydrolysis Products [8] | Hydrolysis Rate, v/[E]0 (hydrolyzed substrate per minute per [enzyme] µM) [8] | Hydrolysis Rate, v/µg (hydrolyzed substrate per minute per enzyme µg) [8] [µM/min/µg] | ΔTm relative to the apo form, both DSF and nanoDSF [3] | Tm, wild-type hNudt16, nanoDSF [1] [°C] | ΔTm, wild-type hNudt16, nanoDSF [1] [°C] | Hydrolytic activity of EE-QQ mutant [4] | Hydrolytic activity of E76Q mutant [5] | Hydrolytic activity of EE-KK mutant [7] | Susceptibility to hydrolysis by hNudt16 (in words) [8] | Km [9] [µM]
4 | CC(C)(COP(=O)(O)OP(=O)(O)OC[C@H]1O[C@@H](n2cnc3c(N)ncnc32)[C@H](O)[C@@H]1O)[C@@H](O)C(=O)NCCC(=O)NCCS [dpCoA, Dephospho-coenzyme A] | 67.0 ± 0.1 | 3.3 ± 0.1 | 68.1 ± 0.1 | 3.1 ± 0.1 | 5.951 | ≤2.481 | ≥ 15000 | 43 | AMP + dpCop | 18.0 ± 1.3 µM/min/[E]0 | 0.75 ± 0.05 |  |  |  |  |  |  |  | 
5 | C[n+]1cn([C@@H]2O[C@H](COP(=O)([O-])OP(=O)(O)OC[C@H]3O[C@@H](n4cnc5c(=O)[nH]c(N)nc54)[C@H](O)[C@@H]3O)[C@@H](O)[C@H]2O)c2nc(N)[nH]c(=O)c21 [m^7GppG] | 78.2 ± 0.1 | 14.4 ± 0.1 | 80.2 ± 0.1 | 15.2 ± 0.1 | 9.063 | 6.154 | 30.2 ± 2.5 | 0.22 ± 0.087 | m^7GMP + GMP | 722.6 ± 68.6 µM/min/[E]0 | 30.11 ± 2.81 |  |  |  |  | none of the mutants exhibited hydrolytic activity |  |  | 
6 | Adenosine diphosphate ribose [ADPr] | 63.6 ± 0.1 | −0.1 ± 0.1 | 66.0 ± 0.1 | 0.9 ± 0.1 |  | ≤2.32 |  |  |  |  |  |  | 68.1 ± 0.1 | 0.9 ± 0.1 |  |  |  | resistant to hydrolytic cleavage | ~1000
